Target: T1, GST-hLGK1 (human liver GK) (Homo sapiens, UniProt P35557)
T1 construct: made in house; host or cells: Escherichia coli BL21 (Stratagene), plasmid pGEX6P-2/hLGK1
T1 sequence (P35557 1-464 isoform P35557-3): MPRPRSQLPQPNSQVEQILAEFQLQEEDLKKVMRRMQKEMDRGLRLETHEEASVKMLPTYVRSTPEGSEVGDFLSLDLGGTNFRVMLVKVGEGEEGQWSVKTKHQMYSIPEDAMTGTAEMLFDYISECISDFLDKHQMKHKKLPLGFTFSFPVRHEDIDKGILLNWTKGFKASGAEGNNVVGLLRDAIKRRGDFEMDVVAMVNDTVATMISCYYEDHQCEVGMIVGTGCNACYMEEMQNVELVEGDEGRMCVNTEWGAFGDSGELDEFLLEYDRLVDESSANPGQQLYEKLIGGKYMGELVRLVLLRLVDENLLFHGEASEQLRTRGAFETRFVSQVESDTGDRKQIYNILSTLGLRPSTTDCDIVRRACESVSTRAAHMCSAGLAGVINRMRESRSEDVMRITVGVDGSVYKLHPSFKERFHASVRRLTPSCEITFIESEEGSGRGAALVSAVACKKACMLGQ
Experiment: Determination of GK activity value (GST-hLGK1, Mant-ATP, capillary electrophoresis)
Type: biochemical
Conditions: glucokinase activation; GST-hLGK1, D-glucose, 37° C. for 60 min; concentration at midpoint between maximum activity value and control group activity value
Method: Plasmid DNA to be used for the expression of a protein (GST-hLGK1) containing GST (Glutathione S-transferase) added to the amino terminal of human liver GK in Escherichia coli was prepared as follows.
BL21 strain (Stratagene) transformed with pGEX6P-2/hLGK1 obtained in Reference Example 1A was cultured with shaking at 37° C. for 14 hr in a 200 ml Erlenmeyer flask containing 50 ml of 100 μg/ml ampicillin-containing LB medium. The culture medium (25 ml) was diluted with 225 ml of 100 μg/ml ampicillin-containing LB medium, and further cultured with shaking at 37° C. for 1 hr in a 1 L Erlenmeyer flask. After culture, the Erlenmeyer flask was cooled on ice, 125 μL of 100 mM isopropyl-thio-β-D-galactopyranoside (IPTG) was added (final concentration 50 μM), and cultured at 17° C. for 20 hr. The culture medium was centrifuged, and the obtained fungus was disrupted by ultrasonication. The object protein (GST-hLGK1) was purified from the supernatant using Glutathione Sepharose 4B (Amersham Biosciences K.K.).
A solution (5 μL) of test compound in 50% dimethyl sulfoxide was added to each well of 384 well black plate (Nalge Nunc International K.K.). Then, a solution ([…]) obtained by diluting GST-hLGK1 obtained in Reference Example 2A with measurement buffer (containing 50 mM HEPES (pH 7.4), 200 mM KCl, 5 mM MgCl2, 2.5 mM DTT and 50 μM 2′-(or-3′)-O—(N-methylanthraniloyl)adenosine 5′-triphosphate (Mant-ATP) (Jena Bioscience GmbH)) to 6 μg/mL was added to each well.
Each well was stood at 37° C. for 10 min, and 25 mM D-glucose solution (10 μL) was added to start the reaction.
Each well after the reaction was stood at 37° C. for 60 min, and the reaction was quenched by adding 25 μL of a quenching solution (containing 200 mM HEPES (pH 7.4), 20 mM MgCl2, 200 mM EDTA, 0.03% Triton-X 100, 0.3% Coating 3 reagent (Caliper Life Sciences, Inc.)).
2′-(or-3′)-O—(N-methylanthraniloyl)adenosine 5′-triphosphate (Mant-ATP, substrate) and Mant-ADP (reaction resultant product) were separated from each well after the reaction by a microchip type capillary electrophoresis apparatus 250 HTS (Caliper Life Sciences, Inc.). The reaction rate [(reaction resultant product peak height)/(reaction resultant product peak height+substrate peak height)×100(%)] was calculated from the ratio of the substrate peak height and reaction resultant product peak height obtained by fluorescence detection (excitation wavelength 355 nm, measurement wavelength 460 nm) and used as the index of GK activity.
As a control group, the reaction rate was calculated in the same manner as above except that “solution in 50% dimethyl sulfoxide (without test compound)” was used instead of “solution of test compound in 50% dimethyl sulfoxide”.
A concentration dependency curve of the test compound was drawn with the percentage obtained by dividing the reaction rate of the well added with the test compound (test compound addition group) by the reaction rate of the control group was taken as the GK activity value of the test compound, and the concentration of the test compound at the midpoint between the maximum activity value of the test compound addition group and the control group activity value is shown as EC50 value.

Row | EC50 | SMILES
1 | 81 nM | CN(c1cccc2cc(C3=NCC(CN4CCOCC4)S3)[nH]c12)S(=O)(=O)c1cccs1 (single isomer, unassigned) [Example 274, N-methyl-N-{2-[5-(morpholinomethyl)-4,5-dihydro-1,3-thiazol-2-yl]-1H-indol-7-yl}thiophene-2-sulfonamide]
2 | 190 nM | CN(c1cc(OC(F)(F)F)cc2cc(C3=NCC(CC(N)=O)S3)[nH]c12)S(=O)(=O)c1cccs1 (single isomer, unassigned) [Example 520, 2-{2-[7-[methyl(2-thienylsulfonyl)amino]-5-(trifluoromethoxy)-1H-indol-2-yl]-4,5-dihydro-1,3-thiazol-5-yl}acetamide]
3 | 260 nM | COCCOc1cc(N(C)S(=O)(=O)c2ccccn2)c2[nH]c(C3=NCC(CN4CCS(=O)(=O)CC4)S3)cc2c1 (single isomer, unassigned) [Example 528, N-[2-{5-[(1,1-dioxidothiomorpholino)methyl]-4,5-dihydro-1,3-thiazol-2-yl}-5-(2-methoxyethoxy)-1H-indol-7-yl]-N-methylpyridine-2-sulfonamide]
4 | 61 nM | CN(c1cccc2cc(C3=NCC(C)(CCN4CCOCC4)S3)[nH]c12)S(=O)(=O)c1cccs1 (stereo not drawn) [Example 200, N-methyl-N-{2-[5-methyl-5-(2-(morpholino)ethyl)-4,5-dihydro-1,3-thiazol-2-yl]-1H-indol-7-yl}thiophene-2-sulfonamide]
5 | 180 nM | CC(=O)N1CCN(CC2CN=C(c3cc4cccc(N(C)S(=O)(=O)c5cccs5)c4[nH]3)S2)CC1 (stereo not drawn) [Example 218, N-(2-{5-[(4-acetylpiperazin-1-yl)methyl]-4,5-dihydro-1,3-thiazol-2-yl}-1H-indol-7-yl)-N-methylthiophene-2-sulfonamide]
6 | 120 nM | CN(c1cccc2cc(-c3ncc(CN4CCN5C(=O)OCC5C4)s3)[nH]c12)S(=O)(=O)c1cccs1 (stereo not drawn) [Example 229, N-methyl-N-(2-{5-[(3-oxotetrahydro[1,3]oxazolo[3,4-a]pyrazin-7(1H)-yl)methyl]-1,3-thiazol-2-yl}-1H-indol-7-yl)thiophene-2-sulfonamide]

The remaining lines, values behind:

Row | SMILES | EC50
7 | O=S(=O)(c1cccs1)N(c1cccc2cc(C3=NCC(CN4CCOCC4)S3)[nH]c12)C(F)F (single isomer, unassigned) [Example 348, N-(difluoromethyl)-N-{2-[5-(morpholinomethyl)-4,5-dihydro-1,3-thiazol-2-yl]-1H-indol-7-yl}thiophene-2-sulfonamide] | 44 nM
8 | COCCOc1cc(N(C)S(=O)(=O)c2ccccn2)c2[nH]c(C3=NCC(CN4CC[S+]([O-])CC4)S3)cc2c1 (single isomer, unassigned) [Example 398, N-(5-(2-methoxyethoxy)-2-{5-[(1-oxidothiomorpholino)methyl]-4,5-dihydro-1,3-thiazol-2-yl}-1H-indol-7-yl)-N-methylpyridine-2-sulfonamide] | 210 nM
9 | CN(C)C(=O)CN1CCN(Cc2cnc(-c3cc4cccc(N(C)S(=O)(=O)c5cccs5)c4[nH]3)s2)CC1 [Example 10, N,N-dimethyl-2-{4-[(2-{7-[methyl(2-thienylsulfonyl)amino]-1H-indol-2-yl}-1,3-thiazol-5-yl)methyl]piperazin-1-yl}acetamide ditrifluoroacetate] | 210 nM
10 | CC(=O)N1CCN(Cc2cnc(-c3cc4c(Cl)ccc(N(C)S(=O)(=O)c5cccs5)c4[nH]3)s2)CC1 [Example 191, N-(2-{5-[(4-acetylpiperazin-1-yl)methyl]-1,3-thiazol-2-yl}-4-chloro-1H-indol-7-yl)-N-methylthiophene-2-sulfonamide] | 31 nM
11 | CC(=O)N1CCN(Cc2nnc(-c3cc4cccc(N(C)S(=O)(=O)c5cccs5)c4[nH]3)s2)CC1 [Example 198, N-(2-{5-[(4-acetylpiperazin-1-yl)methyl]-1,3,4-thiadiazol-2-yl}-1H-indol-7-yl)-N-methylthiophene-2-sulfonamide] | 530 nM
12 | CN(c1cccc2cc(C3=NCC(C(C)(C)O)S3)[nH]c12)S(=O)(=O)c1cccs1 (stereo not drawn) [Example 226, N-{2-[5-(1-hydroxy-1-methylethyl)-4,5-dihydro-1,3-thiazol-2-yl]-1H-indol-7-yl}-N-methylthiophene-2-sulfonamide] | 53 nM
13 | CCN(c1cccc2cc(-c3ncc(CN4CCn5cnnc5C4)s3)[nH]c12)S(=O)(=O)c1cccs1 [Example 236, N-{2-[5-(5,6-dihydro[1,2,4]triazolo[4,3-a]pyrazin-7(8H)-ylmethyl)-1,3-thiazol-2-yl]-1H-indol-7-yl}-N-ethylthiophene-2-sulfonamide] | 250 nM

Tested on: not given
Experiment: not given
Conditions: not given

Row | melting point | SMILES
14 | 151 to 153 °C | CN(c1cc(OCCCS(C)(=O)=O)cc2cc(C3=NCC(CN4CCN(S(C)(=O)=O)CC4)S3)[nH]c12)S(=O)(=O)c1ccccn1 (stereo not drawn) [Example 325, N-methyl-N-{2-(5-{[4-(methylsulfonyl)piperazin-1-yl]methyl}-4,5-dihydro-1,3-thiazol-2-yl)-5-[3-(methylsulfonyl)propoxy]-1H-indol-7-yl}pyridine-2-sulfonamide]
15 | 206 to 207 °C | CN(c1cccc2cc(C3=NCC(CC(N)=O)S3)[nH]c12)S(=O)(=O)c1ccccn1 (stereo not drawn) [Example 334, 2-(2-{7-[methyl(pyridin-2-ylsulfonyl)amino]-1H-indol-2-yl}-4,5-dihydro-1,3-thiazol-5-yl)acetamide]

The next lines start with the molecule.

Row | SMILES | melting point
16 | CN(c1cc(OCCCS(C)(=O)=O)cc2cc(C3=NCC(CN4CC[S+]([O-])CC4)S3)[nH]c12)S(=O)(=O)c1ccccn1 (stereo not drawn) [Example 323, N-methyl-N-(5-[3-(methylsulfonyl)propoxy]-2-{5-[(1-oxidothiomorpholino)methyl]-4,5-dihydro-1,3-thiazol-2-yl}-1H-indol-7-yl)pyridine-2-sulfonamide] | 107 to 110 °C
17 | CC(=O)N1CCN(CC2CN=C(c3cc4cc(OCCCS(C)(=O)=O)cc(N(C)S(=O)(=O)c5ccccn5)c4[nH]3)S2)CC1 (stereo not drawn) [Example 324, N-{2-{5-[(4-acetylpiperazin-1-yl)methyl]-4,5-dihydro-1,3-thiazol-2-yl}-5-[3-(methylsulfonyl)propoxy]-1H-indol-7-yl}-N-methylpyridine-2-sulfonamide] | 165 to 167 °C
18 | CN(c1cccc2cc(C3=NCC(CC(=O)O)S3)[nH]c12)S(=O)(=O)c1ccccn1 (stereo not drawn) [Example 333, (2-{7-[methyl(pyridin-2-ylsulfonyl)amino]-1H-indol-2-yl}-4,5-dihydro-1,3-thiazol-5-yl)acetic acid] | 231 to 233 °C
19 | CN(c1cccc2cc(C3=NCC(CC(N)=O)S3)[nH]c12)S(=O)(=O)c1ccccn1 (stereo not drawn) [Example 338, 2-(2-{7-[methyl(pyridin-2-ylsulfonyl)amino]-1H-indol-2-yl}-4,5-dihydro-1,3-thiazol-5-yl)acetamide] | 148 to 149 °C
20 | O=S(=O)(c1cccs1)N(c1cccc2cc(C3=NCC(CN4CCOCC4)S3)[nH]c12)C(F)F (stereo not drawn) [Example 346, N-(difluoromethyl)-N-{2-[5-(morpholinomethyl)-4,5-dihydro-1,3-thiazol-2-yl]-1H-indol-7-yl}thiophene-2-sulfonamide] | 185 to 186 °C
21 | CN(c1cc(OC(F)(F)F)cc2cc(C3=NCC(CC(N)=O)S3)[nH]c12)S(=O)(=O)c1cccs1 (stereo not drawn) [Example 384, 2-{2-[7-[methyl(2-thienylsulfonyl)amino]-5-(trifluoromethoxy)-1H-indol-2-yl]-4,5-dihydro-1,3-thiazol-5-yl}acetamide] | 186 to 187 °C
